Columns and labels:
[1] = system: Axin2 accumulation in SW480 cells; experiment: Axin2 384 immunofluorescence assay; format: cell-based; details: Homo sapiens; SW480 cells, 24 hours; read-out: Axin2 384 IF EC50
[2] = target: 6×HIS-tankyrase1 (1091-1325) (Homo sapiens (Human), UniProt O95271); experiment: Tankyrase 1 biochemical assay (AlphaLisa, PARsylation); details: 400 nM NAD, 60 minutes at RT; read-out: TNKS1 IC50
[3] = target: 6×HIS-tankyrase 2 (946-1162) (Homo sapiens (Human), UniProt Q9H2K2); experiment: Tankyrase 2 biochemical assay (AlphaLisa, PARsylation); details: 250 nM NAD; read-out: TNKS2 IC50
PARP2 = PARP2 (Homo sapiens (Human), UniProt Q9UGN5); experiment: PARP2 biochemical assay (BPS kit)
[4] = system: total β-catenin in SW480 colorectal cells; experiment: Total β-catenin MSD 96-well plate assay for SW480 cells; details: Homo sapiens, SW480, read-out: SW480-Total beta-catenin (TBC) IC50 IP
PARP1 = PARP1 (Homo sapiens (Human), UniProt P09874); experiment: PARP1 biochemical assay (Trevigen kit)
From the text: PARP1 biochemical assay was purchased as a kit from Trevigen (cat.#4676-096-K) and used per manufacturers recommendations.

Chain of PARP2 (Q9UGN5 whole entry): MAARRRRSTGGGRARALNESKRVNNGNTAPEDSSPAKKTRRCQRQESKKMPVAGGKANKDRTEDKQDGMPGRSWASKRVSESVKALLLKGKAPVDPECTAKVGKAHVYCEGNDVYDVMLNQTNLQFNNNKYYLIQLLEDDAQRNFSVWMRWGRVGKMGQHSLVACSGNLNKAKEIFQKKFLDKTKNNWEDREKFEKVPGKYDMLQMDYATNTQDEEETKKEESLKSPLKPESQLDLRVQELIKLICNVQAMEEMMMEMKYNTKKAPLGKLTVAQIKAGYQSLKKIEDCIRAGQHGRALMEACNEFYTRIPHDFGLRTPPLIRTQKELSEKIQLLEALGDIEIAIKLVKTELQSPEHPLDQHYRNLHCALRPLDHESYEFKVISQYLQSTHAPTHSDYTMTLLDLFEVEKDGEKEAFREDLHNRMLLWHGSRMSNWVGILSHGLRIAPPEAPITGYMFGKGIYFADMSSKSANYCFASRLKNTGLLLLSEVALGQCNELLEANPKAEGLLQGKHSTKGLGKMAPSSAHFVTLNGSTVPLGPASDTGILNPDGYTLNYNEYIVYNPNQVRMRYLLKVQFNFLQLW
Chain of 6×HIS-tankyrase1 (1091-1325) (O95271 1091-1325): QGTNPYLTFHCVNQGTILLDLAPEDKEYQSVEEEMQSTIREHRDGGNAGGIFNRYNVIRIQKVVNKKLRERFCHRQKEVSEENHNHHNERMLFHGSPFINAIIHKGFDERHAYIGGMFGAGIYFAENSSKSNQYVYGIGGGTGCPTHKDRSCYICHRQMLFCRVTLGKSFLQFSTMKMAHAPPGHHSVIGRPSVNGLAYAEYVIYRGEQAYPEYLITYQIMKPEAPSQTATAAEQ
Chain of 6×HIS-tankyrase 2 (946-1162) (Q9H2K2 946-1162): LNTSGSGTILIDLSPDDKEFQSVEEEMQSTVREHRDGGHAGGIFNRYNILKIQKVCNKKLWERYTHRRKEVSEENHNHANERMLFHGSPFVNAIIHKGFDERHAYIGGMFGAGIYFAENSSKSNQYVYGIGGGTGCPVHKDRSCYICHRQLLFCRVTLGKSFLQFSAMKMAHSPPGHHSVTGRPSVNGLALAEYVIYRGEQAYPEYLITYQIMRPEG
Chain of PARP1 (P09874 whole entry): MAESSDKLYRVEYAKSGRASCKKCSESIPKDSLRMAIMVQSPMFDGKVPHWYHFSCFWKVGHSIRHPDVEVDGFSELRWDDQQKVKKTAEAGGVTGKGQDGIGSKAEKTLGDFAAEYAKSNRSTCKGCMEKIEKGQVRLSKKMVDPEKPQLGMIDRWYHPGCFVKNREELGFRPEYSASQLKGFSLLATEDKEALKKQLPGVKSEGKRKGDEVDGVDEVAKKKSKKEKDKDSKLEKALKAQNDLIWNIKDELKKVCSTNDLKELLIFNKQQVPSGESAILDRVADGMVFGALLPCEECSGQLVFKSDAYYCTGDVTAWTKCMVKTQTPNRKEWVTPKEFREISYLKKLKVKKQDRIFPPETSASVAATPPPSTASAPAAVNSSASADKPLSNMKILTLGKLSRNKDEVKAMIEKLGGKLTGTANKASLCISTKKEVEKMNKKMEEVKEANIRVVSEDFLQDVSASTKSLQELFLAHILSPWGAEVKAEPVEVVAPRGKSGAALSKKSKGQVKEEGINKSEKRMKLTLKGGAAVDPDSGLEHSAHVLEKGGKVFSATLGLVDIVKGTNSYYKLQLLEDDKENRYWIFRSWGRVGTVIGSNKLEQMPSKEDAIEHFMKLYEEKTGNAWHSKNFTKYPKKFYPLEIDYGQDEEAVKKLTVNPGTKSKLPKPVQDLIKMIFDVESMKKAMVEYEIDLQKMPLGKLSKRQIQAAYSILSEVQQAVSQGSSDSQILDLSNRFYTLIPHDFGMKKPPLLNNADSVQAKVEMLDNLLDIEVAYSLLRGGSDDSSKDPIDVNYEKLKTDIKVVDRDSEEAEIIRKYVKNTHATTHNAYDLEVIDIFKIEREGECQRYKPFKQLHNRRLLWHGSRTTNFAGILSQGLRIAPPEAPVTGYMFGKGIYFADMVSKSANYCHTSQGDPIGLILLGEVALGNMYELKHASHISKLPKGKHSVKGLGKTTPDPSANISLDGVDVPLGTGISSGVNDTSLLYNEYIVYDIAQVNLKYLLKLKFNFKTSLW

O=C(CCCc1nc2ccccc2c(=O)[nH]1)N1CCC(c2nnc(-c3cccnc3)o2)CC1 [Example 13, 2-(4-oxo-4-(4-(5-(3-pyridinyl)-1,3,4-oxadiazol-2-yl)-1-piperidinyl)butyl)-4(3H)-quinazolinone]
EC50 [1]: 0.461 µM | IC50 [2]: 0.0428 µM | IC50 [3]: 0.00654 µM | IC50 (PARP2): 1.24 µM | IC50 [4]: 0.358 µM | IC50 (PARP1): 7.09 µM

O=C(CCCc1nc2ccccc2c(=O)[nH]1)N1CCC(c2nnc(-c3cnccn3)o2)CC1 [Example 14, 2-(4-oxo-4-(4-(5-(2-pyrazinyl)-1,3,4-oxadiazol-2-yl)-1-piperidinyl)butyl)-4(3H)-quinazolinone]
EC50 [1]: 1.25 µM | IC50 [2]: 0.0797 µM | IC50 [3]: 0.0155 µM | IC50 (PARP2): 2.18 µM | IC50 [4]: 0.837 µM | IC50 (PARP1): 8.54 µM

COc1ccc(-c2nnc(C3CCN(C(=O)CCCc4nc5ccccc5c(=O)[nH]4)CC3)o2)cc1 [Example 15, 2-(4-(4-(5-(4-methoxyphenyl)-1,3,4-oxadiazol-2-yl)-1-piperidinyl)-4-oxobutyl)-4(3H)-quinazolinone]
EC50 [1]: 0.126 µM | IC50 [2]: 0.015 µM | IC50 [3]: 0.00335 µM | IC50 (PARP2): 1.2 µM | IC50 [4]: 0.0869 µM | IC50 (PARP1): 3.17 µM

O=C(CCCc1nc2ccccc2c(=O)[nH]1)N1CCC(c2nnc(-c3ccccc3Cl)o2)CC1 [Example 16, 2-(4-(4-(5-(2-chlorophenyl)-1,3,4-oxadiazol-2-yl)-1-piperidinyl)-4-oxobutyl)-4(3H)-quinazolinone]
EC50 [1]: 1.9 µM | IC50 [2]: 0.107 µM | IC50 [3]: 0.0179 µM | IC50 (PARP2): 0.56 µM | IC50 [4]: 1.19 µM | IC50 (PARP1): 5.07 µM

O=C(CCCc1nc2ccccc2c(=O)[nH]1)N1CCC(c2nnc(COc3ccc(Cl)cc3)o2)CC1 [Example 17, 2-(4-(4-(5-((4-chlorophenoxy)methyl)-1,3,4-oxadiazol-2-yl)-1-piperidinyl)-4-oxobutyl)-4(3H)-quinazolinone]
EC50 [1]: 6.39 µM | IC50 [2]: 0.646 µM | IC50 [3]: 0.152 µM | IC50 (PARP2): 0.916 µM | IC50 [4]: 2.19 µM | IC50 (PARP1): 3.79 µM

O=C(CCCc1nc2ccccc2c(=O)[nH]1)N1CCC(c2nnc(-c3ccccc3F)o2)CC1 [Example 18, 2-(4-(4-(5-(2-fluorophenyl)-1,3,4-oxadiazol-2-yl)-1-piperidinyl)-4-oxobutyl)-4(3H)-quinazolinone]
EC50 [1]: 0.732 µM | IC50 [2]: 0.0544 µM | IC50 [3]: 0.0209 µM | IC50 (PARP2): 1.12 µM | IC50 [4]: 0.76 µM | IC50 (PARP1): 4.47 µM

O=C(CCCc1nc2ccccc2c(=O)[nH]1)N1CCC(c2nnc(-c3ccncc3)o2)CC1 [Example 19, 2-(4-oxo-4-(4-(5-(4-pyridinyl)-1,3,4-oxadiazol-2-yl)-1-piperidinyl)butyl)-4(3H)-quinazolinone]
EC50 [1]: 0.291 µM | IC50 [2]: 0.015 µM | IC50 [3]: 0.00486 µM | IC50 (PARP2): 1.12 µM | IC50 [4]: 0.248 µM | IC50 (PARP1): 4.92 µM

N#Cc1cccc(-c2nnc(C3CCN(C(=O)CCCc4nc5ccccc5c(=O)[nH]4)CC3)o2)c1 [Example 20, 3-(5-(1-(4-(4-oxo-3,4-dihydroquinazolin-2-yl)butanoyl)piperidin-4-yl)-1,3,4-oxadiazol-2-yl)benzonitrile]
EC50 [1]: 0.166 µM | IC50 [2]: 0.0113 µM | IC50 [3]: 0.00319 µM | IC50 (PARP2): 0.37 µM | IC50 [4]: 0.151 µM | IC50 (PARP1): 2.85 µM

N#Cc1ccc(-c2nnc(C3CCN(C(=O)CCCc4nc5ccccc5c(=O)[nH]4)CC3)o2)cc1 [Example 21, 4-(5-(1-(4-(4-oxo-3,4-dihydroquinazolin-2-yl)butanoyl)piperidin-4-yl)-1,3,4-oxadiazol-2-yl)benzonitrile]
EC50 [1]: 0.242 µM | IC50 [2]: 0.0171 µM | IC50 [3]: 0.00489 µM | IC50 (PARP2): 1.45 µM | IC50 [4]: 0.154 µM | IC50 (PARP1): 2.03 µM

Cc1cccc(-c2nnc(C3CCN(C(=O)CCCc4nc5ccccc5c(=O)[nH]4)CC3)o2)c1 [Example 22, 2-(4-oxo-4-(4-(5-(m-tolyl)-1,3,4-oxadiazol-2-yl)piperidin-1-yl)butyl)quinazolin-4(3H)-one]
EC50 [1]: 0.333 µM | IC50 [2]: 0.0194 µM | IC50 [3]: 0.00413 µM | IC50 (PARP2): 1.59 µM | IC50 [4]: 0.217 µM | IC50 (PARP1): 3.13 µM

Cc1ccc(-c2nnc(C3CCN(C(=O)CCCc4nc5ccccc5c(=O)[nH]4)CC3)o2)cc1 [Example 23, 2-(4-oxo-4-(4-(5-(p-tolyl)-1,3,4-oxadiazol-2-yl)piperidin-1-yl)butyl)quinazolin-4(3H)-one]
EC50 [1]: 0.601 µM | IC50 [2]: 0.656 µM | IC50 [3]: 0.00631 µM | IC50 (PARP2): 0.455 µM | IC50 [4]: 0.152 µM | IC50 (PARP1): 3.3 µM

COc1cccc(-c2nnc(C3CCN(C(=O)CCCc4nc5ccccc5c(=O)[nH]4)CC3)o2)c1 [Example 24, 2-(4-(4-(5-(3-methoxyphenyl)-1,3,4-oxadiazol-2-yl)piperidin-1-yl)-4-oxobutyl)quinazolin-4(3H)-one]
EC50 [1]: 0.257 µM | IC50 [2]: 0.0188 µM | IC50 [3]: 0.00495 µM | IC50 (PARP2): 1.11 µM | IC50 [4]: 0.226 µM | IC50 (PARP1): 1.69 µM

O=C(CCCc1nc2ccccc2c(=O)[nH]1)N1CCC(c2nnc(-c3ccc(F)c(Cl)c3)o2)CC1 [Example 25, 2-(4-(4-(5-(3-chloro-4-fluorophenyl)-1,3,4-oxadiazol-2-yl)piperidin-1-yl)-4-oxobutyl)quinazolin-4(3H)-one]
EC50 [1]: 0.24 µM | IC50 [2]: 0.00961 µM | IC50 [3]: 0.00391 µM | IC50 (PARP2): 1.36 µM | IC50 [4]: 0.224 µM | IC50 (PARP1): 2.3 µM

O=C(CCCc1nc2ccccc2c(=O)[nH]1)N1CCC(n2c(=O)[nH]c3cccnc32)CC1 [Example 26, 2-(4-oxo-4-(4-(2-oxo-1,2-dihydro-3H-imidazo[4,5-b]pyridin-3-yl)-1-piperidinyl)butyl)-4(3H)-quinazolinone]
EC50 [1]: 1.41 µM | IC50 [2]: 0.00507 µM | IC50 [3]: 0.00151 µM | IC50 (PARP2): 0.397 µM | IC50 [4]: 0.361 µM | IC50 (PARP1): 4.93 µM

O=C(CCCc1nc2ccccc2c(=O)[nH]1)N1CCC(n2c(=O)[nH]c3cc(Cl)ccc32)CC1 [Example 27, 2-(4-(4-(5-chloro-2-oxo-2,3-dihydro-1H-benzimidazol-1-yl)-1-piperidinyl)-4-oxobutyl)-4(3H)-quinazolinone]
EC50 [1]: 0.114 µM | IC50 [2]: 0.00134 µM | IC50 [3]: 0.000478 µM | IC50 (PARP2): 0.0997 µM | IC50 [4]: 0.0637 µM | IC50 (PARP1): 0.887 µM

O=C(CCCc1nc2ccccc2c(=O)[nH]1)N[C@H]1CC[C@H](c2nnc(-c3ccc(Cl)cc3)o2)CC1 [Example 29, N-(trans-4-(5-(4-chlorophenyl)-1,3,4-oxadiazol-2-yl)cyclohexyl)-4-(4-oxo-3,4-dihydro-2-quinazolinyl)butanamide]
EC50 [1]: 0.0302 µM | IC50 [2]: 0.000549 µM | IC50 [3]: 0.00043 µM | IC50 (PARP2): 0.889 µM | IC50 [4]: 0.0149 µM | IC50 (PARP1): 1.67 µM

COc1ccc(-c2nnc([C@H]3CC[C@H](NC(=O)CCCc4nc5ccccc5c(=O)[nH]4)CC3)o2)cc1 [Example 30, N-(trans-4-(5-(4-methoxyphenyl)-1,3,4-oxadiazol-2-yl)cyclohexyl)-4-(4-oxo-3,4-dihydro-2-quinazolinyl)butanamide]
EC50 [1]: 0.0139 µM | IC50 [2]: 0.000567 µM | IC50 [3]: 0.000191 µM | IC50 (PARP2): 1.27 µM | IC50 [4]: 0.0106 µM | IC50 (PARP1): 1.06 µM

O=C(CCCc1nc2ccccc2c(=O)[nH]1)N[C@H]1CC[C@H](c2nnc(-c3cccc(F)c3)o2)CC1 [Example 31, N-(trans-4-(5-(3-fluorophenyl)-1,3,4-oxadiazol-2-yl)cyclohexyl)-4-(4-oxo-3,4-dihydro-2-quinazolinyl)butanamide]
EC50 [1]: 0.0309 µM | IC50 [2]: 0.000469 µM | IC50 [3]: 0.000237 µM | IC50 (PARP2): 1.15 µM | IC50 [4]: 0.0248 µM | IC50 (PARP1): 1.05 µM

COc1cccc(-c2nnc([C@H]3CC[C@H](NC(=O)CCCc4nc5ccccc5c(=O)[nH]4)CC3)o2)c1 [Example 32, N-(trans-4-(5-(3-methoxyphenyl)-1,3,4-oxadiazol-2-yl)cyclohexyl)-4-(4-oxo-3,4-dihydro-2-quinazolinyl)butanamide]
EC50 [1]: 0.0325 µM | IC50 [2]: 0.000495 µM | IC50 [3]: 0.000301 µM | IC50 (PARP2): 0.828 µM | IC50 [4]: 0.0157 µM | IC50 (PARP1): 0.801 µM

O=C(CCCc1nc2ccccc2c(=O)[nH]1)N[C@H]1CC[C@H](c2nnc(-c3ccncc3)o2)CC1 [Example 33, 4-(4-oxo-3,4-dihydro-2-quinazolinyl)-N-(trans-4-(5-(4-pyridinyl)-1,3,4-oxadiazol-2-yl)cyclohexyl)butanamide]
EC50 [1]: 0.0257 µM | IC50 [2]: 0.000453 µM | IC50 [3]: 0.000341 µM | IC50 (PARP2): 1.14 µM | IC50 [4]: 0.0348 µM | IC50 (PARP1): 2.84 µM

COc1ccc2[nH]c(=O)n(C3CCN(C(=O)CCCc4nc5ccccc5c(=O)[nH]4)CC3)c2c1 [Example 34, 2-(4-(4-(6-methoxy-2-oxo-2,3-dihydro-1H-benzimidazol-1-yl)-1-piperidinyl)-4-oxobutyl)-4(3H)-quinazolinone]
EC50 [1]: 0.0969 µM | IC50 [2]: 0.00197 µM | IC50 [3]: 0.000981 µM | IC50 (PARP2): 0.431 µM | IC50 [4]: 0.101 µM | IC50 (PARP1): 0.629 µM

O=C(CCCc1nc2ccccc2c(=O)[nH]1)N[C@H]1CC[C@H](c2nnc(-c3cccc(Cl)c3)o2)CC1 [Example 36, N-(trans-4-(5-(3-chlorophenyl)-1,3,4-oxadiazol-2-yl)cyclohexyl)-4-(4-oxo-3,4-dihydro-2-quinazolinyl)butanamide 2,2,2-trifluoroacetate]
EC50 [1]: 0.022 µM | IC50 [2]: 0.000367 µM | IC50 [3]: 0.00027 µM | IC50 (PARP2): 0.701 µM | IC50 [4]: 0.0299 µM | IC50 (PARP1): 1.14 µM

Source: US9505749B2, “Quinazolinone compounds and derivatives thereof” (AMGEN INC., priority 2012, dated 2016)
